The nature of the series: Transport of substance applied to plasma treated area through open pores in the SC. The following applies: applied more than 5 minutes after plasma treatment.

Turning to Dextran [10 kDa Dextran], the “passage through the SC when applied after 5 minutes” value is “no longer passed through the SC”.

Values taken from US11724078B2, “Methods and systems for trans-tissue substance delivery using plasmaporation” (GOJO INDUSTRIES, INC., priority 2016, dated 2023).
